Assay results reported in US9724408B2, “Compositions and methods for activating stimulator of interferon gene-dependent signalling” (ADURO BIOTECH, INC., priority 2013, dated 2017).

How the values were obtained:
THP1-Blue™ ISG cells = test: Type I interferon induction in THP1-Blue ISG reporter cells (QUANTI-Blue, A655); type: cell-based, human; settings: for IFN-β levels: 50 μM for 30 minutes, supernatants after overnight incubation, FIG. 10
Procedure: To determine the relative level of type I interferon induced in human cells by each of the native and derivative molecules as a signature of adjuvant potency, 4×10^5 THP1-Blue™ ISG cells (a human monocyte cell line transfected with an IRF-inducible secreted embryonic alkaline phosphatase reporter gene (Invivogen) which express alkaline phosphatase under the control of a promoter comprised of five IFN-stimulated response elements) were incubated with 100 μM of cyclic [G(3′,5′)pG(3′,5′)p] (CDG), cyclic [G(2′,5′)pG(3′,5′)p] (mixed linkage, or ML-CDG), or HBSS for 30 minutes at 37° C. with 5% CO2. After 30 minutes, cells were washed and plated in 96-well dish in RPMI media containing 10% FBS, and incubated at 37° C. with 5% CO2. Cell culture supernatants from each sample were collected after overnight incubation, and 20 μL of the cell culture supernatants was added to 180 μL QUANTI-Blue reagent (Invivogen) and incubated for 45 minutes to evaluate type I interferon protein levels. Readings at Absorbance 655 nm were taken every 3 minutes using a Versa Max kinetic spectrophotometer (Molecular Diagnostics).
[…]. After 30 minutes, cells were washed and plated in 96-well dish in RPMI media containing 10% FBS, and incubated at 37° C. with 5% CO2. Cell culture supernatants from each sample were collected after overnight incubation, and 20 μL of the cell culture supernatants was added to 180 μL QUANTI-Blue reagent (Invivogen) and incubated for 45 minutes. Readings at Absorbance 655 nm were taken at 15 minutes using a SpectraMax spectrophotometer (Molecular Diagnostics).
The induction of type I interferon in human cells was measured to evaluate the potency of untreated and phosphodiesterase-treated oxo, Rp monothio and Rp, Rp dithio derivatives. […]. After 30 minutes, cells were washed and plated in a 96-well dish in RPMI media containing 10% FBS, and incubated at 37° C. with 5% CO2. Cell culture supernatants from each sample were collected after 16 hr incubation, and 20 μL of the cell culture supernatants was added to 180 μL QUANTI-Blue reagent (Invivogen) and incubated for 25 minutes to evaluate type I interferon protein levels. Readings at Absorbance 655 nm were measured with a Versa Max spectrophotometer (Molecular Diagnostics).

hSTING (Q) = test: IFNβ-LUC reporter in HEK293T cells expressing hSTING (Q); type: cell-based, human; settings: 10 μM, digitonin permeabilization, 6 hrs, FIG. 14
Source text: To determine the responsiveness of the five known natural human STING variants (referred to as WT, REF, HAQ, AQ and Q) to the native and derivative molecules, a panel of human embryonic kidney (HEK) 293T cell lines that expressed the human STING alleles was generated. […] MSCV2.2 plasmids encoding hSTING(REF)-GFP, hSTING(WT)-GFP, hSTING(HAQ)-GFP, hSTING(Q)-GFP and mSTING(WT)-GFP were obtained from the Vance Laboratory at UC Berkeley. hSTING(AQ)-GFP was derived from hSTING(Q)-GFP using a QuickChange Site-Directed Mutagenesis kit (Stratagene). The sequence of the hSTING(REF) allele is also known as the Barber allele (Ishikawa, H., and Barber, G. N. (2008). Nature 455, 674-678), and has the NCBI Reference Sequence NP_938023.1. The amino acid difference between hSTING(REF) and the other WT, HAQ, AQ and Q human STING alleles are shown in FIG. 13, which is adapted from Yi et al., Plos One 8: e77846 (2013). Stable HEK 293T-derived cell lines expressing each of the individual human STING alleles were generated by FACS sorting of GFP positive cells using a Mo Flo cell sorter at the Cancer Research Laboratory Flow Cytometry Facility at UC Berkeley. 1×10^4 HEK293T STING cells were seeded in 96-well plates and transiently transfected (using Lipofectamine 2000) with 50 ng of a human IFN-β reporter plasmid (pLuc-IFN-β) expressing the human IFN-β promoter upstream of a luciferase reporter and 10 ng of TK-renilla for normalization. 24 hours later, cells were stimulated with native and synthetic CDN derivative molecules using digitonin permeabalization to ensure uniform uptake. Each STING cell line was stimulated with 10 μM of cyclic [G(3′,5′)pA(3′,5′)p] (cGAMP), cyclic [G(2′,5′)pA(3′,5′)p] (ML-cGAMP), Rp, Rp dithio cyclic [G(2′,5′)pA(3′,5′)p] […] (CDA), Rp, Rp dithio cyclic [A(3′,5′)pA(3′,5′)p] (RR-CDA), cyclic [A(2′,5′)pA(3′,5′)p] (ML-CDA), Rp, Rp dithio cyclic [A(2′,5′)pA(3′,5′)p] (ML RR-CDA), cyclic [G(3′,5′)pG(3′,5′)p] (CDG), Rp, Rp dithio cyclic [G(3′,5′)pG(3′,5′)p] (RR-CDG), cyclic [G(2′,5′)pG(3′,5′)p] (ML-CDG) or Rp, Rp dithio cyclic [G(2′,5′)pG(3′,5′)p] (ML RR-CDG) in 25 ul digitonin buffer (50 mM HEPES, 100 mM KCL, 3 mM MgCl2, 0.1 mM DTT, 85 mM Sucrose, 0.2% BSA, 1 mM ATP, 0.1 mM GTP, 10 ug/ml digitonin). After 20 min, the stimulation mixtures were removed and 200 ul of standard RPMI media was added. After stimulation for 6 hrs, cell lysates were prepared and reporter gene activity measured using the Dual Luciferase Assay System (Promega) on a Spectramax M3 luminometer.

B16 melanoma cells = test: B16 melanoma tumor model in STING-deficient mice, intratumoral CDN; type: in vivo, goldenticket STING−/− mice; settings: ML RR-CDG 25 μg, ML RR-CDA 50 μg, CpG 1668 50 μg, three injections, FIG. 20B
Procedure: To determine whether the effects of the derivative molecules are STING-dependent, B16 melanoma cells (5×10^4 cells in 100 μL PBS) were implanted on the right flanks of 6-8 week old female goldenticket STING^−/− mice, or wild-type C57BL/6 control mice (5 mice per group). Treatments began when tumors reached a volume of approximately 75 mm^3, on day 14 post tumor implantation. The compounds administered were Rp, Rp dithio cyclic [G(2′,5′)pG(3′,5′)p] (ML RR-CDG) (25 μg in a total volume of 40 μL HBSS), Rp, Rp dithio cyclic [A(2′,5′)pA(3′,5′)p] (ML RR-CDA) (50 μg in a total volume of 40 μL HBSS), the TLR9 agonist CpG 1668 (50 μg in a total volume of 40 μL HBSS), or HBSS vehicle control. Mice were treated by subcutaneous injection into the center of tumor only using a 27 gauge needle. Injections were repeated every three days, for a total of three intratumoral injections.

Structure (SMILES)	IFN-β levels (THP1-Blue™ ISG cells)	IFNβ reporter response of hSTING (Q) (hSTING (Q))	tumor growth in STING−/− mice (B16 melanoma cells)	induction of type I interferon, untreated compounds (THP1-Blue™ ISG cells; 50 μM, mock treated, 16 hr incubation, FIG. 12)
Nc1nc2c(ncn2[C@@H]2O[C@@H]3CO[P@@](O)(=S)O[C@@H]4[C@H](O)[C@@H](CO[P@@](O)(=S)O[C@H]3[C@H]2O)O[C@H]4n2cnc3c(=O)[nH]c(N)nc32)c(=O)[nH]1 [ML RR-CDG, dithio-[RP,RP]-cyclic-[G(2′,5′)pG(3′,5′)p]]	significantly higher levels of IFN-β than the unmodified cyclic c-di-GMP (CDG) or modified CDG molecules	responsive to stimulation	not inhibited	–
Nc1ncnc2c1ncn2[C@@H]1O[C@@H]2COP(O)(=S)O[C@@H]3C(O)[C@@H](COP(O)(=S)O[C@H]2[C@H]1O)O[C@H]3n1cnc2c(N)ncnc21 (stereo partly shown) [ML RR-CDA, dithio-[RP, RP]-cyclic-[A(2′,5′)pA(3′,5′)p]]	significantly higher IFN-β levels that either the unmodified CDA or ML CDA molecules	responsive to stimulation	not inhibited	more potent inducers of type I interferon than the oxo
